Test results from PubChem BioAssay (NCI).
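The compound was tested at five concentrations on cells cultured in 96-well plates, with a 48-hour exposure period. The concentration for full growth arrest is given as TGI.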

Key:
Experiment in all cases: growth of human tumour cells (NCI), 48 h
MDA-N = tested on: MDA-N
HT29 colon = tested on: HT29 colon
UO-31 renal = tested on: UO-31 renal
A549 NSCLC = tested on: A549 NSCLC
KM12 colon = tested on: KM12 colon
MDA-MB-435 = tested on: MDA-MB-435
NCI-H522 lung = tested on: NCI-H522 lung
NCI-H23 lung = tested on: NCI-H23 lung
MDA-MB-231 breast = tested on: MDA-MB-231 breast
OVCAR-4 ovarian = tested on: OVCAR-4 ovarian
U251 CNS = tested on: U251 CNS
SK-MEL-2 melanoma = tested on: SK-MEL-2 melanoma
NCI-H226 lung = tested on: NCI-H226 lung
M14 melanoma = tested on: M14 melanoma
OVCAR-8 ovarian = tested on: OVCAR-8 ovarian
UACC-62 melanoma = tested on: UACC-62 melanoma
OVCAR-5 ovarian = tested on: OVCAR-5 ovarian
SK-MEL-5 melanoma = tested on: SK-MEL-5 melanoma
HOP-92 NSCLC = tested on: HOP-92 NSCLC
SR leukemia = tested on: SR leukemia
SK-MEL-28 melanoma = tested on: SK-MEL-28 melanoma
IGROV1 ovarian = tested on: IGROV1 ovarian
HS 578T breast = tested on: HS 578T breast
CCRF-CEM leukemia = tested on: CCRF-CEM leukemia
HCT-15 colon = tested on: HCT-15 colon
HL-60(TB) leukemia = tested on: HL-60(TB) leukemia
SF-539 CNS = tested on: SF-539 CNS
ACHN renal = tested on: ACHN renal
EKVX NSCLC = tested on: EKVX NSCLC
HCT-116 colon = tested on: HCT-116 colon
SNB-75 CNS = tested on: SNB-75 CNS
NCI-H460 lung = tested on: NCI-H460 lung
SW-620 colon = tested on: SW-620 colon
HCC-2998 colon = tested on: HCC-2998 colon
SF-295 CNS = tested on: SF-295 CNS
HOP-62 NSCLC = tested on: HOP-62 NSCLC
SK-OV-3 ovarian = tested on: SK-OV-3 ovarian
LOX IMVI melanoma = tested on: LOX IMVI melanoma
TK-10 renal = tested on: TK-10 renal
PC-3 prostate = tested on: PC-3 prostate
SN12C renal = tested on: SN12C renal
MOLT-4 leukemia = tested on: MOLT-4 leukemia
MCF7 breast = tested on: MCF7 breast
A498 renal = tested on: A498 renal
OVCAR-3 ovarian = tested on: OVCAR-3 ovarian
K-562 leukemia = tested on: K-562 leukemia
UACC-257 melanoma = tested on: UACC-257 melanoma
CAKI-1 renal = tested on: CAKI-1 renal
SNB-19 CNS = tested on: SNB-19 CNS
786-0 renal = tested on: 786-0 renal
SF-268 CNS = tested on: SF-268 CNS
NCI/ADR-RES ovarian = tested on: NCI/ADR-RES ovarian
RPMI-8226 leukemia = tested on: RPMI-8226 leukemia
MALME-3M melanoma = tested on: MALME-3M melanoma
BT-549 breast = tested on: BT-549 breast
T-47D breast = tested on: T-47D breast
DU-145 prostate = tested on: DU-145 prostate
RXF 393 renal = tested on: RXF 393 renal
COLO 205 colon = tested on: COLO 205 colon

Measured: TGI

COC1C(O)C(C)OC(O[C@H]2CC[C@@]3(C)C(CC[C@@H]4[C@@H]3CC[C@]3(C)[C@@H](C(C)OC5OC(CO)C(O)C(O)C5O)CC[C@]43O)C2)C1O (stereo not given in full)
not listed: MALME-3M melanoma | BT-549 breast | T-47D breast | DU-145 prostate | RXF 393 renal | COLO 205 colon
> 25 µM: all other assays above

CC1CN(c2cc3c(cc2F)c(=O)c(C(=O)O)cn3-c2ccc(N3CCN(C)CC3)cn2)CC(C)N1 (stereo not given)
not listed: NCI-H522 lung | SK-MEL-2 melanoma | SK-MEL-5 melanoma | ACHN renal | HCC-2998 colon | LOX IMVI melanoma
> 100 µM: all other assays above

COc1ccc(/C(=N/O)c2ccccc2C2=Nc3ccccc3C(NCc3ccccc3)O2)cc1C (stereo not given)
82.5 µM: SK-OV-3 ovarian
41.9 µM: UACC-257 melanoma
71.9 µM: HOP-92 NSCLC
90.4 µM: MDA-MB-435
67.3 µM: SF-295 CNS
32.8 µM: SK-MEL-5 melanoma
75.4 µM: SNB-75 CNS
52.7 µM: MALME-3M melanoma
38.9 µM: COLO 205 colon
97.4 µM: K-562 leukemia
67.5 µM: UO-31 renal
88.7 µM: UACC-62 melanoma
77.1 µM: OVCAR-8 ovarian
not listed: OVCAR-4 ovarian | TK-10 renal | A498 renal | BT-549 breast | T-47D breast
> 100 µM: all other assays above

COC(=O)N[C@@H]1C[C@H]2CC[C@]1(O[Si](C(C)C)(C(C)C)C(C)C)C(=O)C2
63.4 µM: OVCAR-8 ovarian
46.5 µM: SK-OV-3 ovarian
41.4 µM: HCT-15 colon
70.6 µM: HOP-92 NSCLC
39.3 µM: NCI-H23 lung
76.5 µM: MDA-MB-231 breast
69.8 µM: RPMI-8226 leukemia
38.4 µM: UACC-257 melanoma
45.7 µM: ACHN renal
52.1 µM: KM12 colon
31.8 µM: EKVX NSCLC
32 µM: UO-31 renal | IGROV1 ovarian
28.6 µM: SF-268 CNS
35.3 µM: SK-MEL-2 melanoma
55.7 µM: A549 NSCLC
44.7 µM: UACC-62 melanoma
31.5 µM: HS 578T breast
69 µM: 786-0 renal
33 µM: NCI-H226 lung
36.8 µM: SK-MEL-28 melanoma
35.4 µM: NCI/ADR-RES ovarian
78.7 µM: HL-60(TB) leukemia
33.9 µM: PC-3 prostate
44.3 µM: A498 renal
62.8 µM: M14 melanoma
39.7 µM: SF-295 CNS | OVCAR-3 ovarian
39.5 µM: SNB-19 CNS
30.6 µM: TK-10 renal
33.8 µM: OVCAR-4 ovarian
24 µM: NCI-H522 lung
47.8 µM: HT29 colon
46.4 µM: HOP-62 NSCLC
83.4 µM: MDA-N
41.6 µM: MDA-MB-435
45.3 µM: OVCAR-5 ovarian
41.9 µM: SNB-75 CNS
not listed: U251 CNS | SF-539 CNS | HCC-2998 colon | LOX IMVI melanoma | MALME-3M melanoma | BT-549 breast | RXF 393 renal
> 100 µM: all other assays above

O/N=C1\C/C(=N\O)c2c(Br)sc(Br)c21
30.9 µM: HS 578T breast
97.8 µM: IGROV1 ovarian
63.2 µM: SK-MEL-28 melanoma
32.6 µM: NCI-H522 lung
60 µM: CAKI-1 renal
41.7 µM: HCT-15 colon
51.3 µM: SNB-75 CNS
72.7 µM: SW-620 colon
40.3 µM: OVCAR-8 ovarian
59.3 µM: NCI-H23 lung
92.7 µM: MOLT-4 leukemia
45.2 µM: LOX IMVI melanoma
96.5 µM: SF-268 CNS
50.2 µM: HCC-2998 colon
37.3 µM: CCRF-CEM leukemia
not listed: OVCAR-5 ovarian | PC-3 prostate | SNB-19 CNS | RPMI-8226 leukemia | RXF 393 renal
> 100 µM: all other assays above

CCCCCc1cc2cc3c(c(O)c2c(=O)[nH]1)C1(CCC3)C(=O)c2c(O)ccc(O)c2C1=O
not listed: UACC-62 melanoma | SK-OV-3 ovarian | T-47D breast
> 100 µM: all other assays above

O=C1CCCC1CC(CN1CCOCC1)Sc1nnnn1-c1ccccc1 (stereo not given)
79.1 µM: CAKI-1 renal
82.2 µM: HL-60(TB) leukemia
96.7 µM: SNB-75 CNS
33.1 µM: COLO 205 colon
not listed: HS 578T breast | HCT-15 colon | NCI-H460 lung | TK-10 renal | SF-268 CNS | T-47D breast
> 100 µM: all other assays above
